Measurements taken from patent US20250144067A1, “PERSONALIZED STARVATION THERAPY FOR CANCER” (Faeth Therapeutics, Inc., priority 2021, published 2025).
Structures can show the parent of a compound that is named as a salt. Where two headings read alike, the source gives them in different places. Peptide text beside a SMILES is read from it.

Key:
[1] = tested on: NCI-H292 lung cancer cells; assay: FDA drug screening, complete media vs cholesterol-free media without statin (TABLE 1); type: cell-based, human
[2] = tested on: NCI-H292 lung cancer cells; assay: FDA drug screening, complete media vs cholesterol-free media with simvastatin (TABLE 2); type: cell-based, human
[3] = Complete minus Cholesterol-free, >0 enhanced anti-cancer activity, about 0 neutral, <0 antagonist
[4] = NCI-H292 cells, cholesterol-free media without statin
[5] = NCI-H292 cells, FDA drug library screen, cholesterol-free media with simvastatin 0.04 μM
[6] = NCI-H292 cells, FDA drug library screen, complete media
[7] = complete media minus cholesterol-free media + simvastatin, >0 enhanced anti-cancer activity, about 0 neutral, <0 antagonist
[8] = NCI-H292 cells, drug in cholesterol-free media with simvastatin 0.04 μM
[9] = NCI-H292 cells, drug in complete media
[10] = complete media vs cholesterol-free media + simvastatin (0.04 μM), >0 enhanced anti-cancer activity, about 0 neutral, <0 antagonist
[11] = Complete minus Cholesterol-free, greater than 0 enhanced anti-cancer activity, about 0 neutral, below 0 antagonist
[12] = NCI-H292 cells, FDA drug library screen, cholesterol-free media without statin
[13] = NCI-H292 cells, cholesterol-free media without statin, FDA drug library screen
[14] = NCI-H292 cells, complete media, FDA drug library screen
[15] = complete media minus cholesterol-free media + simvastatin, […]
[16] = Complete minus Cholesterol-free, […]
[17] = NCI-H292 cells in cholesterol-free media without statin
[18] = NCI-H292 cells in complete media
[19] = Complete minus Cholesterol-free, greater than 0 enhanced anti-cancer activity, about 0 neutral, below 0 antagonists
[20] = complete vs cholesterol-free media, greater than 0 enhanced anti-cancer activity, about 0 neutral, below 0 antagonists
[21] = NCI-H292 cells, cholesterol-free media with simvastatin 0.04 μM, FDA drug library screen (TABLE 2)
[22] = NCI-H292 cells, complete media, FDA drug library screen (TABLE 2)
[23] = complete media minus cholesterol-free media + simvastatin (0.04 μM), >0 enhanced anti-cancer activity, about 0 neutral, <0 antagonist
[24] = complete vs cholesterol-free media, >0 enhanced anti-cancer activity, about 0 neutral, <0 antagonist

Compound: CO[C@H]1O[C@@H]2O[C@@]3(C)CC[C@H]4[C@H](C)CC[C@@H]([C@H]1C)[C@@]24OO3 [Artemether]
- Difference [1, 3]: −0.26
- Cholesterol-free [1, 4]: 1.059
- Complete ([1]; NCI-H292 cells, complete media): 0.7961
- Cholesterol-free media + simvastatin (0.04 μM) [2, 5]: 0.6524
- Complete Media [2, 6]: 0.841
- Difference [2, 7]: 0.19

Compound: CN(C)CCOCC(=O)NC12CC3CC(CC(C3)C1)C2 [Tromantadine (hydrochloride)]
- Difference [1, 3]: −0.20
- Cholesterol-free [1, 4]: 0.9414
- Complete ([1]; NCI-H292 cells, complete media): 0.7414
- Cholesterol-free media + simvastatin (0.04 μM) [2, 8]: 1.251
- Complete Media [2, 9]: 1.005
- Difference [2, 10]: −0.25

Compound: C[C@]12CC[C@@H]3c4ccc(O)cc4CC[C@H]3[C@@H]1CC[C@H]2O [Alpha-Estradiol]
- Difference [1, 11]: −0.14
- Cholesterol-free [1, 12]: 0.998
- Complete [1, 6]: 0.8561
- Cholesterol-free media + simvastatin (0.04 μM) [2, 5]: 1.11
- Complete Media [2, 6]: 1.408
- Difference [2, 7]: 0.30

Compound: CC(C)NCC(O)COc1ccc(COCCOC(C)C)cc1.CC(C)NCC(O)COc1ccc(COCCOC(C)C)cc1.O=C(O)/C=C/C(=O)O (racemic) [(±)-Bisoprolol (hemifumarate)]
- Difference [1, 3]: −0.20
- Cholesterol-free [1, 4]: 1.077
- Complete ([1]; NCI-H292 cells, complete media): 0.8813
- Cholesterol-free media + simvastatin (0.04 μM) [2, 5]: 0.9429
- Difference [2, 7]: 0.21

Compound: Pasiniazid
- Cholesterol-free [1, 13]: 1.164
- Complete [1, 14]: 1.274
- Difference ([1]; complete vs cholesterol-free media, […]): 0.11
- Cholesterol-free media + simvastatin (0.04 μM) [2, 5]: 1.047
- Complete Media [2, 6]: 1.325
- Difference [2, 15]: 0.28

Compound: N=C(N)NCCCC[C@@H]1NC(=O)CCSSC[C@@H](C(N)=O)NC(=O)[C@@H]2CCCN2C(=O)[C@H](Cc2c[nH]c3ccccc23)NC(=O)[C@H](CC(=O)O)NC(=O)CNC1=O [Eptifibatide] (HELM PEPTIDE1{[O=C(CCS[*:3])[*:2]].[N=C(N)NCCCC[C@H](N[*:1])C(=O)[*:2]].G.D.W.P.C.[am]}$PEPTIDE1,PEPTIDE1,1:R3-7:R3$$$V2.0)
- Difference [1, 16]: −1.01
- Cholesterol-free [1, 17]: 1.974
- Complete [1, 18]: 0.9607
- Cholesterol-free media + simvastatin (0.04 μM) [2, 5]: 0.8438
- Complete Media [2, 6]: 0.9929
- Difference [2, 15]: 0.15

Compound: Sumatriptan (succinate)
- Cholesterol-free [1]: 0.9558
- Complete [1]: 2.035
- Difference [1]: 1.08
- Cholesterol-free media + simvastatin (0.04 μM) [2]: 1.195
- Complete Media [2]: 0.8897
- Difference [2]: −0.31

Compound: COc1ccc(Cl)cc1C(=O)NCCc1ccc(S(=O)(=O)NC(=O)NC2CCCCC2)cc1 [Glibenclamide]
- Difference [1, 19]: −0.64
- Complete [1, 18]: 0.9798
- Cholesterol-free media + simvastatin (0.04 μM) [2, 5]: 1.112
- Complete Media [2, 6]: 0.9567
- Difference [2, 10]: −0.16

Compound: Nc1ncnc2c1ncn2[C@@H]1O[C@H](COP(=O)(O)OP(=O)(O)OP(=O)(O)O)[C@@H](O)[C@H]1O [ATP]
- Difference [1, 11]: −0.10
- Cholesterol-free [1, 12]: 1.57
- Complete [1, 6]: 1.466
- Cholesterol-free media + simvastatin (0.04 μM) [2, 8]: 1.049
- Complete Media [2, 9]: 0.8041
- Difference [2, 10]: −0.24

Compound: CCCCOc1ccc(OCCCN2CCOCC2)cc1 [Pramocaine (hydrochloride)]
- Cholesterol-free [1, 4]: 1.301
- Complete ([1]; NCI-H292 cells, complete media): 0.9298
- Difference [1, 20]: −0.37
- Cholesterol-free media + simvastatin (0.04 μM) [2, 5]: 0.6469
- Complete Media [2, 6]: 1.047
- Difference [2, 7]: 0.40

Compound: COc1ccc(C(C)=O)c(O)c1 [Paeonol]
- Difference [1, 3]: −0.29
- Cholesterol-free [1, 4]: 1.074
- Complete ([1]; NCI-H292 cells, complete media): 0.7804
- Cholesterol-free media + simvastatin (0.04 μM) ([2]; NCI-H292 cells, cholesterol-free media with simvastatin 0.04 μM, cell growth value in FDA drug screen): 1.081
- Complete Media ([2]; NCI-H292 cells, complete media, cell growth value in FDA drug screen): 1.107
- Difference [2, 7]: 0.03

Compound: CCCC(=O)O[C@]1(C(=O)CO)CC[C@H]2[C@@H]3CCC4=CC(=O)CC[C@]4(C)[C@H]3[C@@H](O)C[C@@]21C [Hydrocortisone 17-butyrate]
- Difference [1, 3]: −0.03
- Cholesterol-free [1, 13]: 1.162
- Complete [1, 14]: 1.133
- Cholesterol-free media + simvastatin (0.04 μM) [2, 5]: 0.4747
- Complete Media [2, 6]: 0.6696
- Difference [2, 7]: 0.19

Compound: C#C[C@]1(O)CC[C@H]2[C@@H]3CCc4cc(OC5CCCC5)ccc4[C@H]3CC[C@@]21C [Quinestrol]
- Cholesterol-free [1, 4]: 1.478
- Complete ([1]; NCI-H292 cells, complete media): 1.012
- Difference [1, 20]: −0.47
- Cholesterol-free media + simvastatin (0.04 μM) [2, 21]: 0.01915
- Complete Media [2, 22]: 0.02153
- Difference [2, 23]: 0.00

Compound: N[C@@H](CCC(=O)O)C(=O)[O-].[Na+] [L-Glutamic acid monosodium salt]
- Difference [1, 16]: −0.03
- Cholesterol-free [1, 13]: 1.093
- Complete [1, 14]: 1.059
- Cholesterol-free media + simvastatin (0.04 μM) ([2]; NCI-H292 cells, FDA library drug in cholesterol-free media with simvastatin 0.04 μM): 1.191
- Complete Media ([2]; NCI-H292 cells, FDA library drug in complete media): 0.778
- Difference ([2]; complete media vs cholesterol-free media + simvastatin (0.04 μM), […]): −0.41

Compound: O=C(O)c1cc(/N=N/c2ccc(S(=O)(=O)Nc3ccccn3)cc2)ccc1O [Sulfasalazine]
- Difference [1, 3]: −0.20
- Cholesterol-free [1, 4]: 1.104
- Complete ([1]; NCI-H292 cells, complete media): 0.9081
- Cholesterol-free media + simvastatin (0.04 μM) [2, 21]: 1.17
- Complete Media [2, 22]: 1.155
- Difference [2, 23]: −0.01

Compound: Cl.NCCC[C@](N)(C(=O)O)C(F)F [L-Eflornithine (monohydrochloride)]
- Difference [1, 3]: 0.02
- Cholesterol-free [1, 13]: 0.8255
- Complete [1, 14]: 0.8469
- Cholesterol-free media + simvastatin (0.04 μM) [2, 21]: 1.266
- Complete Media [2, 22]: 1.268
- Difference [2, 23]: 0.00

Compound: CCCCOCCOCCOCc1cc2c(cc1CCC)OCO2 [Piperonyl butoxide]
- Difference [1, 3]: −0.29
- Cholesterol-free [1, 4]: 1.491
- Complete ([1]; NCI-H292 cells, complete media): 1.202
- Cholesterol-free media + simvastatin (0.04 μM) [2, 21]: 1.206
- Complete Media [2, 22]: 1.18
- Difference [2, 23]: −0.03

Compound: CC(C)COc1ccc(CNC(=O)N(Cc2ccc(F)cc2)C2CCN(C)CC2)cc1 [Pimavanserin]
- Cholesterol-free [1, 13]: 0.9868
- Complete [1, 14]: 1.126
- Difference [1, 24]: 0.14
- Cholesterol-free media + simvastatin (0.04 μM) [2, 5]: 0.8784
- Complete Media [2, 6]: 1.133
- Difference [2, 7]: 0.25

Compound: O=C1C2CC3CC1CC(O)(C3)C2 [Idramantone]
- Difference [1, 19]: −0.71
- Cholesterol-free [1, 17]: 1.638
- Complete [1, 18]: 0.9237
- Cholesterol-free media + simvastatin (0.04 μM) [2, 5]: 1.208
- Complete Media [2, 6]: 1.085
- Difference [2, 10]: −0.12

Compound: O=S(=O)(O)c1ccc2[nH]c(-c3ccccc3)nc2c1 [Ensulizole]
- Difference [1, 16]: 0.07
- Cholesterol-free [1, 13]: 0.8614
- Complete [1, 14]: 0.9314
- Cholesterol-free media + simvastatin (0.04 μM) [2, 21]: 0.9021
- Complete Media [2, 22]: 0.8833
- Difference ([2]; complete media minus cholesterol-free media + simvastatin (0.04 μM), […]): −0.02

Compound: CC(C)=CCC/C(C)=C/CC/C(C)=C/CC/C=C(\C)CC/C=C(\C)CCC=C(C)C [Squalene]
- Cholesterol-free [1, 13]: 1.273
- Complete [1, 14]: 1.566
- Difference [1, 24]: 0.29
- Cholesterol-free media + simvastatin (0.04 μM) [2, 8]: 0.9877
- Complete Media [2, 9]: 0.7931
- Difference [2, 10]: −0.19

Compound: COC1=CC(=O)OC(/C=C/c2ccccc2)C1 (single isomer, unassigned; (+)) [(+)-Kavain]
- Difference [1, 16]: −0.08
- Cholesterol-free [1, 12]: 1.138
- Complete [1, 6]: 1.054
- Cholesterol-free media + simvastatin (0.04 μM) ([2]; NCI-H292 cells, cholesterol-free media with simvastatin 0.04 μM, […]): 1.009
- Complete Media ([2]; NCI-H292 cells, complete media, […]): 1.093
- Difference [2, 15]: 0.08
